US9994547B2, “Heteroarylamide inhibitors of TBK1” (Takeda Pharmaceutical Company Limited, priority 2014, dated 2018)

Molecular target: Full length human TBK1 (Homo sapiens (Human), UniProt Q9UHD2)
Experiment: Inhibition of TBK1 Enzyme (Example A)
Type: biochemical
Conditions: -log(IC50), IC50 molar; 3 nM TBK1, 25 μM ATP, 60 min RT
How it was run: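 Full-length N-His human TBK1 from Sf9 baculovirus was tested with 11-point 2.5-fold dilutions (1% DMSO) in Hepes pH 7.4, MgCl2, EDTA, Brij, DTT. After 60 min RT and EDTA quench, microfluidic conversion was fitted and reported as pIC50.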

Full length human TBK1, sequence (Q9UHD2 whole entry): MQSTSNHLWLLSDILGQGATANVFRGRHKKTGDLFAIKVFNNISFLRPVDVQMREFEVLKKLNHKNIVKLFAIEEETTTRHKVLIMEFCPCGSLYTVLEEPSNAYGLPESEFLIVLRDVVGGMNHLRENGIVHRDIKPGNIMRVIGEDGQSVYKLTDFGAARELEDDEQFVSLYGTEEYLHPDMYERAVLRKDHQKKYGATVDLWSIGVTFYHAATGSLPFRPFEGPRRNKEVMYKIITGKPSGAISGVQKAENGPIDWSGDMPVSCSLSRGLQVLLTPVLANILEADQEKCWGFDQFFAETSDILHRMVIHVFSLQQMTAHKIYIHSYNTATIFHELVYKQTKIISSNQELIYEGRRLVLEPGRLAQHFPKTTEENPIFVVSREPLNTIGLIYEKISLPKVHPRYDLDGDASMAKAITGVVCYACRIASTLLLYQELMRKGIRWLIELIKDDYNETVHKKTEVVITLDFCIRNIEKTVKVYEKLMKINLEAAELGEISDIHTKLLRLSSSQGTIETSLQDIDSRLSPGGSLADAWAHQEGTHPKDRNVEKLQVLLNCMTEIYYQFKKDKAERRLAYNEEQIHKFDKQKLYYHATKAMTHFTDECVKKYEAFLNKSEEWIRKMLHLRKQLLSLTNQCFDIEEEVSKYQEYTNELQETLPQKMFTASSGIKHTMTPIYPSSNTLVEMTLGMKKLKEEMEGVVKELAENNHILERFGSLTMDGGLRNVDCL

C[C@H](Nc1cc(-c2cnc(NC(=O)C3CC3)cn2)cc(F)c1C#N)C(=O)N(C)C [Example 137, (S)-N-(5-(4-cyano-3-((1-(dimethylamino)-1-oxopropan-2-yl)amino)-5-fluorophenyl)pyrazin-2-yl)cyclopropanecarboxamide]
TBK1 Inhibition (pIC50): 7.6

CN1CC(N(C)C(=O)CNc2cc(-c3cnc(NC(=O)C4CC4)cn3)cnc2C#N)C1 [Example 105, N-(5-(6-cyano-5-((2-(methyl(1-methylazetidin-3-yl)amino)-2-oxoethyl)amino)pyridin-3-yl)pyrazin-2-yl)cyclopropanecarboxamide]
TBK1 Inhibition (pIC50): 5.6

C[C@H](O)[C@H](Nc1cc(-c2cnc(NC(=O)C3CC3)cn2)cnc1C#N)C(=O)N(C)C [Example 39, N-(5-(6-cyano-5-(((2S,3S)-1-(dimethylamino)-3-hydroxy-1-oxobutan-2-yl)amino)pyridin-3-yl)pyrazin-2-yl)cyclopropanecarboxamide]
TBK1 Inhibition (pIC50): 7.0

CC[C@H](Nc1cc(-c2cnc(NC(=O)C3CC3)cn2)ncc1C#N)C(=O)N(C)C [Example 127, (S)-N-(5-(5-cyano-4-((1-(dimethylamino)-1-oxobutan-2-yl)amino)pyridin-2-yl)pyrazin-2-yl)cyclopropanecarboxamide]
TBK1 Inhibition (pIC50): 7.0

CN(CCS(C)(=O)=O)C(=O)CNc1cc(-c2cnc(NC(=O)C3CC3)cn2)cnc1C#N [Example 66, N-(5-(6-cyano-5-((2-(methyl(2-(methylsulfonyl)ethyl)amino)-2-oxoethyl)amino)pyridin-3-yl)pyrazin-2-yl)cyclopropanecarboxamide]
TBK1 Inhibition (pIC50): 6.6

C[C@H](Nc1cc(-c2cnc(NC(=O)C3CC3)cn2)cnc1C#N)C(=O)N1CCC[C@@H]1C#N [Example 55, N-(5-(6-cyano-5-(((S)-1-((R)-2-cyanopyrrolidin-1-yl)-1-oxopropan-2-yl)amino)pyridin-3-yl)pyrazin-2-yl)cyclopropanecarboxamide]
TBK1 Inhibition (pIC50): 7.6

N#Cc1ncc(-c2cnc(NC(=O)C3CC3)cn2)cc1NCC(=O)N1CCOC[C@@H]1CF [Example 75, (R)-N-(5-(6-cyano-5-((2-(3-(fluoromethyl)morpholino)-2-oxoethyl)amino)pyridin-3-yl)pyrazin-2-yl)cyclopropanecarboxamide]
TBK1 Inhibition (pIC50): 6.9

CN(C)C(=O)[C@H](CO)Nc1cc(-c2cnc(NC(=O)C3CC3)cn2)cnc1C#N [Example 57, (S)-N-(5-(6-cyano-5-((1-(dimethylamino)-3-hydroxy-1-oxopropan-2-yl)amino)pyridin-3-yl)pyrazin-2-yl)cyclopropanecarboxamide]
TBK1 Inhibition (pIC50): 7.2

CC(C#N)NC(=O)CNc1cc(-c2cnc(NC(=O)C3CC3)cn2)cnc1C#N (stereo not drawn) [Example 59, N-(5-(6-cyano-5-((2-((1-cyanoethyl)amino)-2-oxoethyl)amino)pyridin-3-yl)pyrazin-2-yl)cyclopropanecarboxamide]
TBK1 Inhibition (pIC50): 6.7

CC[C@H](Nc1cc(-c2cnc(NC(=O)C3CC3)cn2)cnc1C#N)C(=O)N(C)CCF [Example 56, (S)-N-(5-(6-cyano-5-((1-((2-fluoroethyl)(methyl)amino)-1-oxobutan-2-yl)amino)pyridin-3-yl)pyrazin-2-yl)cyclopropanecarboxamide]
TBK1 Inhibition (pIC50): 7.7

N#Cc1ccc(-c2cnc(NC(=O)C3CC3)cn2)cc1NCC(=O)N1CCC1 [Example 21, N-(5-(3-((2-(azetidin-1-yl)-2-oxoethyl)amino)-4-cyanophenyl)pyrazin-2-yl)cyclopropanecarboxamide]
TBK1 Inhibition (pIC50): 6.6

C[C@H](Nc1cc(-c2cnc(NC(=O)C3CC3)cn2)cnc1C#N)C(=O)N1CCOC[C@@H]1C [Example 91, N-(5-(6-cyano-5-(((S)-1-((S)-3-methylmorpholino)-1-oxopropan-2-yl)amino)pyridin-3-yl)pyrazin-2-yl)cyclopropanecarboxamide]
TBK1 Inhibition (pIC50): 7.7

N#Cc1ncc(-c2cnc(NC(=O)C3CC3)cn2)cc1NCC(=O)N1CCS(=O)(=O)C1 [Example 140, N-(5-(6-cyano-5-((2-(1,1-dioxidothiazolidin-3-yl)-2-oxoethyl)amino)pyridin-3-yl)pyrazin-2-yl)cyclopropanecarboxamide]
TBK1 Inhibition (pIC50): 7.0

CC(Nc1cc(-c2cnc(NC(=O)C3CC3)cn2)cnc1C#N)C(=O)N(C)CC(F)F (stereo not drawn) [Example 46, N-(5-(6-cyano-5-((1-((2,2-difluoroethyl)(methyl)amino)-1-oxopropan-2-yl)amino)pyridin-3-yl)pyrazin-2-yl)cyclopropanecarboxamide]
TBK1 Inhibition (pIC50): 8.0

N#Cc1ccc(-c2cnc(NC(=O)C3CC3)cn2)cc1NCC(=O)N1CCC(O)C1 (stereo not drawn) [Example 27, N-(5-(4-cyano-3-((2-(3-hydroxypyrrolidin-1-yl)-2-oxoethyl)amino)phenyl)pyrazin-2-yl)cyclopropanecarboxamide]
TBK1 Inhibition (pIC50): 6.9

C[C@H](O)[C@@H](Nc1cc(-c2cnc(NC(=O)C3CC3)cn2)cnc1C#N)C(=O)N(C)C [Example 38, N-(5-(6-cyano-5-(((2R,3S)-1-(dimethylamino)-3-hydroxy-1-oxobutan-2-yl)amino)pyridin-3-yl)pyrazin-2-yl)cyclopropanecarboxamide]
TBK1 Inhibition (pIC50): 5.8

N#Cc1ncc(-c2cnc(NC(=O)C3CC3)cn2)cc1NCC(=O)N1C[C@H](CO)C[C@H]1C(F)(F)F [Example 113, N-(5-(6-cyano-5-((2-((2S,4R)-4-(hydroxymethyl)-2-(trifluoromethyl)pyrrolidin-1-yl)-2-oxoethyl)amino)pyridin-3-yl)pyrazin-2-yl)cyclopropanecarboxamide]
TBK1 Inhibition (pIC50): 7.6

CN(CC#N)C(=O)CNc1cc(-c2cnc(NC(=O)C3CC3)cn2)cnc1C#N [Example 49, N-(5-(6-cyano-5-((2-((cyanomethyl)(methyl)amino)-2-oxoethyl)amino)pyridin-3-yl)pyrazin-2-yl)cyclopropanecarboxamide]
TBK1 Inhibition (pIC50): 7.2

CCN(C)C(=O)CNc1cc(-c2cnc(NC(=O)C3CC3)cn2)ccc1C#N [Example 20, N-(5-(4-cyano-3-((2-(ethyl(methyl)amino)-2-oxoethyl)amino)phenyl)pyrazin-2-yl)cyclopropanecarboxamide]
TBK1 Inhibition (pIC50): 7.4

C[C@H](Nc1cc(-c2cnc(NC(=O)C3CC3)cn2)cnc1C#N)C(=O)N(C)CC(F)F [Example 53, (S)-N-(5-(6-cyano-5-((1-((2,2-difluoroethyl)(methyl)amino)-1-oxopropan-2-yl)amino)pyridin-3-yl)pyrazin-2-yl)cyclopropanecarboxamide]
TBK1 Inhibition (pIC50): 8.6

N#Cc1ncc(-c2cnc(NC(=O)C3CC3)cn2)cc1NCC(=O)N1CCCC1CF (stereo not drawn) [Example 143, N-(5-(6-cyano-5-((2-(2-(fluoromethyl)pyrrolidin-1-yl)-2-oxoethyl)amino)pyridin-3-yl)pyrazin-2-yl)cyclopropanecarboxamide]
TBK1 Inhibition (pIC50): 7.0

CN(Cc1cnccn1)C(=O)CNc1cc(-c2cnc(NC(=O)C3CC3)cn2)cnc1C#N [Example 76, N-(5-(6-cyano-5-((2-(methyl(pyrazin-2-ylmethyl)amino)-2-oxoethyl)amino)pyridin-3-yl)pyrazin-2-yl)cyclopropanecarboxamide]
TBK1 Inhibition (pIC50): 5.3

CC[C@@H](Nc1cc(-c2cnc(NC(=O)C3CC3)cn2)ccc1C#N)C(=O)N(C)C [Example 26, (R)-N-(5-(4-cyano-3-((1-(dimethylamino)-1-oxobutan-2-yl)amino)phenyl)pyrazin-2-yl)cyclopropanecarboxamide]
TBK1 Inhibition (pIC50): 8.5

CN(C)C(=O)[C@H](CC(F)F)Nc1cc(-c2cnc(NC(=O)C3CC3)cn2)cnc1C#N [Example 80, (S)-N-(5-(6-cyano-5-((1-(dimethylamino)-4,4-difluoro-1-oxobutan-2-yl)amino)pyridin-3-yl)pyrazin-2-yl)cyclopropanecarboxamide]
TBK1 Inhibition (pIC50): 7.4

C[C@H](Nc1cc(-c2cnc(NC(=O)[C@@H]3C[C@@H]3C)cn2)cnc1C#N)C(=O)N(C)C [Example 108, (1R,2S)-N-(5-(6-cyano-5-(((S)-1-(dimethylamino)-1-oxopropan-2-yl)amino)pyridin-3-yl)pyrazin-2-yl)-2-methylcyclopropanecarboxamide]
TBK1 Inhibition (pIC50): 7.7

CN(C)C(=O)[C@@H](CC(F)F)Nc1cc(-c2cnc(NC(=O)C3CC3)cn2)cnc1C#N [Example 78, (R)-N-(5-(6-cyano-5-((1-(dimethylamino)-4,4-difluoro-1-oxobutan-2-yl)amino)pyridin-3-yl)pyrazin-2-yl)cyclopropanecarboxamide]
TBK1 Inhibition (pIC50): 6.6

C[C@H](Nc1cc(-c2cnc(NC(=O)C3CC3)cn2)ccc1C#N)C(=O)N1CCC1 [Example 9, (S)-N-(5-(3-((1-(azetidin-1-yl)-1-oxopropan-2-yl)amino)-4-cyanophenyl)pyrazin-2-yl)cyclopropanecarboxamide]
TBK1 Inhibition (pIC50): 6.7

C[C@H](Nc1cc(-c2cnc(NC(=O)C3CC3)cn2)cnc1C#N)C(=O)N(CCO)CC(F)F [Example 79, (S)-N-(5-(6-cyano-5-((1-((2,2-difluoroethyl)(2-hydroxyethyl)amino)-1-oxopropan-2-yl)amino)pyridin-3-yl)pyrazin-2-yl)cyclopropanecarboxamide]
TBK1 Inhibition (pIC50): 6.8

CN(C)C(=O)CNc1cc(-c2cnc(NC(=O)C3CC3)cn2)ccc1C#N [Example 123, N-(5-(4-cyano-3-((2-(dimethylamino)-2-oxoethyl)amino)phenyl)pyrazin-2-yl)cyclopropanecarboxamide]
TBK1 Inhibition (pIC50): 7.2

N#Cc1ccc(-c2cnc(NC(=O)C3CC3)cn2)cc1NCC(=O)N1CC(F)(F)C1 [Example 24, N-(5-(4-cyano-3-((2-(3,3-difluoroazetidin-1-yl)-2-oxoethyl)amino)phenyl)pyrazin-2-yl)cyclopropanecarboxamide]
TBK1 Inhibition (pIC50): 6.8
